Results published in ChEMBL document CHEMBL1201862, “PubChem BioAssay data set” (2004).
Active and inactive are the calls of the source.

Columns and labels:
[1] = target: DNA dC->dU-editing enzyme APOBEC-3G (Homo sapiens, UniProt Q9HC16); type: functional;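 also: Dose-response counterscreen measuring inhibition of APOBEC3G DNA deaminase activity, run while confirming APOBEC3A inhibitors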
[2] = target: DNA dC->dU-editing enzyme APOBEC-3A (Homo sapiens, UniProt P31941); assay: Dose Response confirmation of small molecule APOBEC3A DNA Deaminase Inhibitors via a fluorescence-based single-stranded DNA deaminase assay. [Related pubchem assays (depositor defined):AID493011, AID493024]; type: functional
Cytochrome P450 2D6 = Cytochrome P450 2D6 (Homo sapiens, UniProt P10635);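 also: CYP2D6 member of a cytochrome P450 panel assay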
Chain of Cytochrome P450 2D6 (P10635 whole entry, the tested form may be a part): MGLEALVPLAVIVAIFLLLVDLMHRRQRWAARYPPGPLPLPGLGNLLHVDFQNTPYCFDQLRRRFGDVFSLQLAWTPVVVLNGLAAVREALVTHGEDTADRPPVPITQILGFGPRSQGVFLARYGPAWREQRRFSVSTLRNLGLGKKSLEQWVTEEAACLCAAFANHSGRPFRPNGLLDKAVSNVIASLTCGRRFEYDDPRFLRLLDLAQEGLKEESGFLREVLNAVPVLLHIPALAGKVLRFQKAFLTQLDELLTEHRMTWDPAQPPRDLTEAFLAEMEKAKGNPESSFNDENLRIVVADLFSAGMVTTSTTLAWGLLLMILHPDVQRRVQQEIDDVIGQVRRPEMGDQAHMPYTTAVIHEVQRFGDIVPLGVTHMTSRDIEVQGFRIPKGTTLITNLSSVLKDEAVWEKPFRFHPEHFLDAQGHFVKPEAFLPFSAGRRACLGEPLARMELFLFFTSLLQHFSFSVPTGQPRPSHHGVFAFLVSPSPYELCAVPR

[3] = target: T1, Carboxy-terminal domain RNA polymerase II polypeptide A small phosphatase 1 (Homo sapiens, UniProt Q9GZU7); assay: CTDSP1 inhibitors, concentration-response, biochemical, absorbance readout, ultra-high-throughput screen actives (AID 540297); type: functional
T1 sequence (Q9GZU7 whole entry): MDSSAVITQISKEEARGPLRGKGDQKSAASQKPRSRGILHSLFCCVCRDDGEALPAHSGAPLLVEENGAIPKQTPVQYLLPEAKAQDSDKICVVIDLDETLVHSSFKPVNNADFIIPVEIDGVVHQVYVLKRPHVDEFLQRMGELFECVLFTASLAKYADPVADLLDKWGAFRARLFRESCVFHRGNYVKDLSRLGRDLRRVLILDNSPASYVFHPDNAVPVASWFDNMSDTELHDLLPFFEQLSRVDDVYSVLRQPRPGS

Prothrombin = Prothrombin (Homo sapiens, UniProt P00734); assay: Thrombin 1536 HTS Dose Response Confirmation. [Related pubchem assays: 1046 (Thrombin 1536 HTS; hits were confirmed in this assay)]; type: functional
Nonstructural protein 1 = Nonstructural protein 1 (Influenza A virus, UniProt Q194T2); type: functional, Influenza A virus (A/California/07/2009(H1N1))
Cytochrome P450 2C9 = Cytochrome P450 2C9 (Homo sapiens, UniProt P11712)
Cytochrome P450 3A4 = Cytochrome P450 3A4 (Homo sapiens, UniProt P08684);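 also: CYP3A4 tested as one member of a cytochrome P450 panel screen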
Chain of Cytochrome P450 3A4 (P08684 whole entry): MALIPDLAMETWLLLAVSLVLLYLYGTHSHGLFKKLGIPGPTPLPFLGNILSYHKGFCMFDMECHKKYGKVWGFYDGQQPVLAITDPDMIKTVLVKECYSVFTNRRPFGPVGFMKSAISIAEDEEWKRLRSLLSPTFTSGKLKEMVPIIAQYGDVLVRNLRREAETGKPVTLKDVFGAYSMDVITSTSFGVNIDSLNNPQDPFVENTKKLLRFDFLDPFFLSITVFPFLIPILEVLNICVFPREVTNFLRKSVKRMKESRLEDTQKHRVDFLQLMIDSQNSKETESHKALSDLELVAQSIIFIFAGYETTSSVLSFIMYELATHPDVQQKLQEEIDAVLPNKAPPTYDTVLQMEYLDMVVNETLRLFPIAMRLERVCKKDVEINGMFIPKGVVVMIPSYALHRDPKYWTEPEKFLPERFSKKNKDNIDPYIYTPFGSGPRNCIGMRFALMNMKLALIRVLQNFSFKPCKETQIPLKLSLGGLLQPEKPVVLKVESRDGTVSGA

[4] = target: Voltage-gated inwardly rectifying potassium channel KCNH2 (Homo sapiens, UniProt Q12809); conditions: Potency;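 also: confirmatory quantitative high-throughput screen measuring inhibition of hERG channel activity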
Chain of Voltage-gated inwardly rectifying potassium channel KCNH2 (Q12809 whole entry): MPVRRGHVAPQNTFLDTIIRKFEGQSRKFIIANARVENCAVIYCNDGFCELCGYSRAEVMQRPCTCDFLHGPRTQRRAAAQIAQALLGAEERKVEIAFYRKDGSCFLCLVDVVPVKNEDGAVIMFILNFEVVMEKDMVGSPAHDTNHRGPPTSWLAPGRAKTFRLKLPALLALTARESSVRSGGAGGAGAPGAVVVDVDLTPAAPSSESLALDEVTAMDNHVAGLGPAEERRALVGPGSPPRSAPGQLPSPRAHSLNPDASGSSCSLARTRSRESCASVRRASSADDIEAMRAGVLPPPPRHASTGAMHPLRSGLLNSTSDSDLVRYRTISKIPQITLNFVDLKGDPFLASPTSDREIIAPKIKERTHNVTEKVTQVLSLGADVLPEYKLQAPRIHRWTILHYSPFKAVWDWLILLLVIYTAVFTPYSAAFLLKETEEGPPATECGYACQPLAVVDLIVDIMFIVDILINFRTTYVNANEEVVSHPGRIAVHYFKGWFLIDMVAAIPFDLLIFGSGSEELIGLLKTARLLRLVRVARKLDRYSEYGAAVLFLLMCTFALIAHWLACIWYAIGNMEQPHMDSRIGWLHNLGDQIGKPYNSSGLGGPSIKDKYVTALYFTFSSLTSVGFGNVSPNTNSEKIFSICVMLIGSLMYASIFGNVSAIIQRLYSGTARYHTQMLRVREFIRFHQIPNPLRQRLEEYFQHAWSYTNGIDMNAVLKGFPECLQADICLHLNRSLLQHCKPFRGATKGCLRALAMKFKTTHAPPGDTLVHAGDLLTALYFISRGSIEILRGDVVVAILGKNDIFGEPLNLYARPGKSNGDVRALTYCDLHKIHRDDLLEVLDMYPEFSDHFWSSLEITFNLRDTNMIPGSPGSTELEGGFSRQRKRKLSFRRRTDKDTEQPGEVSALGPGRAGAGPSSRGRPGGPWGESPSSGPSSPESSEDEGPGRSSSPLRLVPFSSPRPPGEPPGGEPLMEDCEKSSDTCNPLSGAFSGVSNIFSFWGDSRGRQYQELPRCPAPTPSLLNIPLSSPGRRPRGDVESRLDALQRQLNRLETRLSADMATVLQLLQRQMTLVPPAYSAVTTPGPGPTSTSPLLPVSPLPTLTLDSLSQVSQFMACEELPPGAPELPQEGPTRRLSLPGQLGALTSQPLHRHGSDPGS

H4 = assay: Luminescence Cell-Based Dose Response HTS to Identify Activators of 5'UTR Stem-Loop Driven Prion Protein mRNA Translation in H4 Neuroglioblastoma Cells. [Related pubchem assays: 1829 (Project Summary), 1814 (Primary HTS)]; type: functional; conditions: Homo sapiens
Vero [5] = assay: cells; type: functional; conditions: Chlorocebus sabaeus
[6] = Luminescence Cell-Based Dose Retest to Confirm Inhibitors of Cancer Stem Cells. [Related pubchem assays (depositor defined):AID2717, AID2721]; type: functional; conditions: Homo sapiens
[7] = Luminescence Cell-Based Dose Confirmation HTS to Identify Activators of 5'UTR Stem-Loop Driven Alpha-Synuclein mRNA Translation in H4 Neuroglioblastoma Cells. [Related pubchem assays: 1829 (Project Summary), 1814 (Primary HTS)]; type: functional
Vero [8] = assay: mammalian cell viability reduction – secondary assay, cytotoxicity control for West Nile virus antiviral project, dose response (AID 1650); type: functional; conditions: Chlorocebus sabaeus
[9] = Luminescence Cell-Based Dose Response HTS to Identify Activators of Luciferase Translation or Activity in H4 […] Cells. [Related pubchem assays: 1829 (Project Summary), 1814 (Primary HTS)]; type: functional
Beta-galactosidase = Beta-galactosidase (Escherichia coli, UniProt Q8VNN2); assay: detection-enzyme interference by beta-gal modulators – biochemical, E. coli enzyme, set 3, artefact control for CCR6 antagonist project, dose response (AID 504712); type: functional
Chain of Beta-galactosidase (Q8VNN2 whole entry): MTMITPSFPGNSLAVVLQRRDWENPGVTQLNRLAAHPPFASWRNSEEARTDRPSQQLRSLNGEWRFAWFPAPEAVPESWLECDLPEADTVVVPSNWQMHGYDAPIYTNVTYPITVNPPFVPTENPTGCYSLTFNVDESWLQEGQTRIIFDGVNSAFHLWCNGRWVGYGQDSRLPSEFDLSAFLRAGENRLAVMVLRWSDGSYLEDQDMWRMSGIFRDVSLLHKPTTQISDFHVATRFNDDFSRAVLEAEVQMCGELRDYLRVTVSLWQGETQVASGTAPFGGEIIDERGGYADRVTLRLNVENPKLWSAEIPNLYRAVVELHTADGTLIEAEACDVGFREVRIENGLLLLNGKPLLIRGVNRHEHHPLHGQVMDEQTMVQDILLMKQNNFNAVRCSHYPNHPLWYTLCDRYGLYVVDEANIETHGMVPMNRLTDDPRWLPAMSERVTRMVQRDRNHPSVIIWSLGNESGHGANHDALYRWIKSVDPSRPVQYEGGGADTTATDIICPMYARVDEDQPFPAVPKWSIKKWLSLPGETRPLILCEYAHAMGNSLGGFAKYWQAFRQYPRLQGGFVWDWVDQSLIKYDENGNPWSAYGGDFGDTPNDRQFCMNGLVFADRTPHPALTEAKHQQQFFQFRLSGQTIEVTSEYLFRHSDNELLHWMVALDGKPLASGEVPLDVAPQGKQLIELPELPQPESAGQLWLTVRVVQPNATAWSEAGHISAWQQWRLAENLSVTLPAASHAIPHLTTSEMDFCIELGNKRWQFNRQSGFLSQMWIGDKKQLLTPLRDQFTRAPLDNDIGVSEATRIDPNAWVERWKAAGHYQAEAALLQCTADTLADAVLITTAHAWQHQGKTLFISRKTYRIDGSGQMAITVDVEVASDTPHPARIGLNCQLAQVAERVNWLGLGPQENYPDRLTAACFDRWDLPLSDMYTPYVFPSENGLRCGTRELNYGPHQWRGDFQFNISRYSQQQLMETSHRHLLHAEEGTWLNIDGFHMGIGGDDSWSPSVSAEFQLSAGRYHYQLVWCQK

[10] = HEK-293T viability loss after treatment – luminescence, T-cell screen hits, cytotoxicity control for TCR NF-kB inhibitor project, dose response (AID 489026); type: functional, cell-based;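 also: cells exposed to compound about 14 hours before the viability readout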
[11] = target: Induced myeloid leukemia cell differentiation protein Mcl-1 (Homo sapiens, UniProt Q07820); type: functional
Chain of Induced myeloid leukemia cell differentiation protein Mcl-1 (Q07820 whole entry): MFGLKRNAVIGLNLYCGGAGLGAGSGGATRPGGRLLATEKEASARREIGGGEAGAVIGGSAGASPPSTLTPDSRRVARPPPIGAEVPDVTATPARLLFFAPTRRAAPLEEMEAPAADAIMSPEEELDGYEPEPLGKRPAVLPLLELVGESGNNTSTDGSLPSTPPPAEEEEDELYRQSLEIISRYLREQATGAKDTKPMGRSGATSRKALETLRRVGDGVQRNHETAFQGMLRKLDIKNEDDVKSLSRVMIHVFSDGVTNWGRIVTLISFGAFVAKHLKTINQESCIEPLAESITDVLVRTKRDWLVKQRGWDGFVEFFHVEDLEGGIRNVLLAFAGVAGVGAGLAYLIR

SUMO-activating enzyme [12] = target: T2, SUMO-activating enzyme (Homo sapiens, UniProt Q9UBT2); assay: blockers of SAE1/SAE2–UBC9 SUMO transfer – biochemical, HTRF, uHTS, primary screen (AID 2006); type: protein-complex assay
T2 sequence (Q9UBE0 whole entry): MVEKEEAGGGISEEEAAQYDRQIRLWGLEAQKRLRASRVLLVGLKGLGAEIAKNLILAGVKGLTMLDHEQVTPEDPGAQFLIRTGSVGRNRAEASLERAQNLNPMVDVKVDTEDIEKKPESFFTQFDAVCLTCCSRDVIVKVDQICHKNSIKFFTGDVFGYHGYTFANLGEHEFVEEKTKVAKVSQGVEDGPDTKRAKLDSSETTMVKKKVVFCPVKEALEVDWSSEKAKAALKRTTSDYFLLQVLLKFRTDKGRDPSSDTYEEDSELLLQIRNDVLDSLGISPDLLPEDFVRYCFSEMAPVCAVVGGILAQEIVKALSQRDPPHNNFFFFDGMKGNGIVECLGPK
T2 sequence (Q9UBT2 whole entry): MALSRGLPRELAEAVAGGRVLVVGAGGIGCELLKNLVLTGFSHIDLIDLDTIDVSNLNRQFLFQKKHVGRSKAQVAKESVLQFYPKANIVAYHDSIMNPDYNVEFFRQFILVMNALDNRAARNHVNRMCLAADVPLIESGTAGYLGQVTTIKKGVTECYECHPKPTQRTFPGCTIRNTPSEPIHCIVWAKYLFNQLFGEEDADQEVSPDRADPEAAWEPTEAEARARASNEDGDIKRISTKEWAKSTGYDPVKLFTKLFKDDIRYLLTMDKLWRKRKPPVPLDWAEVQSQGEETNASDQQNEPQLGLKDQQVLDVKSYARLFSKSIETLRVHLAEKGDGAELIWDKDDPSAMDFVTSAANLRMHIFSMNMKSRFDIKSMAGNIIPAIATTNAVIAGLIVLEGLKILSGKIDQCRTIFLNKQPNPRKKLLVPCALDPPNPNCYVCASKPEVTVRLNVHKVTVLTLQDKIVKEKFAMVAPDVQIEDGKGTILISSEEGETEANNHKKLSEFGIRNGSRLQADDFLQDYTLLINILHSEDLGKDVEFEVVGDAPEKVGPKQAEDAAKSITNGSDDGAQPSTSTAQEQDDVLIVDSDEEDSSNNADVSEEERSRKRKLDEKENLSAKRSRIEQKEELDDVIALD

SUMO-activating enzyme [13] = target: T2, SUMO-activating enzyme; assay: blockers of UBC9-mediated SUMO conjugation – biochemical, AlphaScreen, SUMOylation inhibitor project, confirmation (AID 2018); type: functional
[14] = target: T3, Mannose-6-phosphate isomerase (Homo sapiens, UniProt P34949); assay: MPI inhibition at elevated mannose 6-phosphate – biochemical, fluorescence intensity, high mannose 6-phosphate, primary screen (AID 1220)
T3 sequence (P34949 whole entry): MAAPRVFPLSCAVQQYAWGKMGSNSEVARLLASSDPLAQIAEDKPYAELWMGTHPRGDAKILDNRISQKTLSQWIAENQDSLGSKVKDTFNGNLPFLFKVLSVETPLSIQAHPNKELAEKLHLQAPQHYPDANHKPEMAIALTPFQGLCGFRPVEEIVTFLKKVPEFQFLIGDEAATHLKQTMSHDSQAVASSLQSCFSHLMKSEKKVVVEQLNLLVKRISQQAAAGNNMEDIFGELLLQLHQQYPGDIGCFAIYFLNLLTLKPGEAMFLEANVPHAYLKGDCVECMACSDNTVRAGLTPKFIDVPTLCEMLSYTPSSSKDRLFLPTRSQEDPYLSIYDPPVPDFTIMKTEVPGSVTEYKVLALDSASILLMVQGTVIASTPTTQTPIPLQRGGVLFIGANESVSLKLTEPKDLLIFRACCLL

Chain of DNA dC->dU-editing enzyme APOBEC-3G (Q9HC16 whole entry): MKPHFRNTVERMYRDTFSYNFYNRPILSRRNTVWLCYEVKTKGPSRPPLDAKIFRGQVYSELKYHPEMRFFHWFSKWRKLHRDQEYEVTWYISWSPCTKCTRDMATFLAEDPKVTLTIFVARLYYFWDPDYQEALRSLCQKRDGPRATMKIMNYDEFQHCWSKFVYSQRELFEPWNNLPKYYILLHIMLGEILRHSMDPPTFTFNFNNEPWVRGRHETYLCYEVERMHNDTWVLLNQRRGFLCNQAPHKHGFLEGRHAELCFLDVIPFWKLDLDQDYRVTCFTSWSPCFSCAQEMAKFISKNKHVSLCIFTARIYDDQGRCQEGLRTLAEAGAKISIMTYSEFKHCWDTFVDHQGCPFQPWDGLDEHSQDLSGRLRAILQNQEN

Structure (SMILES): C[N+]1(CC(=O)OCCCc2ccccc2)CCOCC1
- IC50 [1]: 1.93 µM (active)
- IC50 [2]: 1.27 µM (active)
- AC50 (Cytochrome P450 2D6): 12.6 µM (inconclusive)
- IC50 [3]: 6.39 µM (active)

Structure (SMILES): O=C1NCC(COCc2ccco2)O1 (stereo unspecified)
- IC50 (Prothrombin): > 50 µM (not active)

Structure (SMILES): CCN(CC)c1ccc(NC(=O)CN2CCN(CC(=O)Nc3ccccc3OC)CC2)cc1
- IC50 (Nonstructural protein 1): 79.6 µM (active)

Structure (SMILES): O=C(c1ccco1)n1nc(-c2ccco2)nc1SCc1ccccc1
- IC50 (Prothrombin): 0.201 µM (active)

Structure (SMILES): COc1ccc(-n2nc(C(F)(F)F)cc2-c2ccc(Cl)cc2)cc1 [SC-560]
- AC50 (Cytochrome P450 2C9): 25.1 µM (inconclusive)
- AC50 (Cytochrome P450 3A4): 39.8 µM (inconclusive)
- AC50 [4]: 31.6 µM (inconclusive)

Structure (SMILES): CC1=NN(c2ccccc2)C(=O)/C1=C\C=C\c1ccccc1
- EC50 (H4): > 120 µM (not active)
- CC50 (Vero [5]): 12.1 µM (active)
- AC50 [6]: 4.82 µM (active)
- EC50 [7]: > 120 µM (not active)
- CC50 (Vero [8]): 26.8 µM (active)
- EC50 [9]: 27.3 µM (active)

Structure (SMILES): CC(=NNc1ccc2ccccc2n1)c1ccccc1O
- IC50 (Beta-galactosidase): > 66.6 µM (inactive)

Structure (SMILES): C=C(C)COc1ccc(-c2[nH]nc(C)c2-c2ccc(OC)c(OC)c2)c(O)c1
- IC50 [10]: 44.6 µM (inactive)
- AC50 [6]: 1.36 µM (active)

Structure (SMILES): C/C=C1/C(=O)C[C@H]2[C@@H]3CCC4=CC(=O)CC[C@]4(C)[C@H]3CC[C@]12C [E-GUGGULSTERONE]
- AC50 [4]: 17.8 µM (inconclusive)

Structure (SMILES): CN1CCC23CCCC[C@H]2C1Cc1ccc(O)cc13 (stereo partly specified)
- AC50 [4]: 2.51 µM (inconclusive)

Structure (SMILES): N#Cc1c2nc3ccccc3nc2n2cc(NC(=O)c3ccc(F)cc3)ccc12
- IC50 [11]: 1.57 µM (active)
- IC50 (SUMO-activating enzyme [12]): 2.96 µM (active)
- IC50 (SUMO-activating enzyme [13]): 1.8 µM (active)

Structure (SMILES): CN(C)c1ccc(C(=S)N2CCOCC2)cc1Br
- IC50 [14]: > 50 µM (not active)

Structure (SMILES): Brc1ccc(Oc2ccc(Br)cc2Br)c(Br)c1
- AC50 [4]: 17.8 µM (inconclusive)
